# How the values were obtained:
# Format in all cases: in vivo
# [1] = tested on: Echinochloa oryzacola Vasing.; assay: Test Example 2: herbicidal activity, application during weed generation in submerged conditions (symbol A); settings: Table 23; application herbicide amount 320 g/ha; grade 0-5 by criteria of Test Example 1
# How it was run: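 Visual herbicidal ratings, taken three weeks after dosing, reflect post-emergence water-surface application to seedlings at one to two leaves. Conditions: co-sown weeds in alluvial soil flooded to 4 cm, greenhouse held at 25° C. to 30° C.; compound given as water-diluted emulsion at a fixed herbicide amount.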
# Leptochloa chinensis = assay: Test Example 3: herbicidal effect by foliage application, Wagner pot (symbol D); settings: application herbicide amount 320 g/ha
# How it was run: (§1)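 Herbicidal activity was rated three weeks after a foliar spray of diluted emulsion concentrate, applied at a predetermined dose to plants grown for 14 days from seed in waterlogged alluvial soil within a 25–30 °C greenhouse.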
# Cyperus difformis = assay: Test Example 3: herbicidal effect by foliage application, Wagner pot (symbol E); settings: application herbicide amount 320 g/ha
# How it was run: as §1
# [2] = tested on: directly sowed rice plant; assay: Test Example 3: effect on crop by foliage application, Wagner pot (symbol b); settings: application herbicide amount 320 g/ha
# How it was run: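 Alluvial soil in a 1/10000-are Wagner pot was flooded to a water depth of 0.1–0.5 cm. Echinochloa crus-galli var. crus-galli, Leptochloa chinensis, Cyperus difformis and rice were sown into it and grown in a greenhouse at 25–30 °C.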
# Setaria viridis = assay: Test Example 4: herbicidal effect by soil treatment (symbol G); settings: application herbicide amount 320 g/ha
# How it was run: (§2)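 Seeds were sown in sterilized diluvial soil, covered with about 1.5 cm of soil, and the soil surface was sprayed with a water-diluted emulsion of the compound at a predetermined rate. Plants grew in a greenhouse at 25° C. to 30° C.; effects were scored visually 3 weeks after application.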
# Avena fatua [3] = assay: Test Example 4: herbicidal effect by soil treatment (symbol I); settings: application herbicide amount 320 g/ha
# How it was run: as §2
# Alopecurus myosuroides = assay: Test Example 4: herbicidal effect by soil treatment (symbol J); settings: application herbicide amount 320 g/ha
# How it was run: as §2
# Lolium multiflorum Lam. = assay: Test Example 4: herbicidal effect by soil treatment (symbol K); settings: application herbicide amount 320 g/ha
# How it was run: as §2
# Abutilon theophrasti = assay: Test Example 4: herbicidal effect by soil treatment (symbol M); settings: application herbicide amount 320 g/ha
# How it was run: as §2
# Amaranthus retroflexus = assay: Test Example 4: herbicidal effect by soil treatment (symbol N); settings: application herbicide amount 320 g/ha
# How it was run: as §2
# Chenopodium album [4] = assay: Test Example 4: herbicidal effect by soil treatment (symbol O); settings: application herbicide amount 320 g/ha
# How it was run: as §2
# Galium spurium = assay: Test Example 4: herbicidal effect by soil treatment (symbol Q); settings: application herbicide amount 320 g/ha
# How it was run: as §2
# rice = assay: Test Example 4: effect on crop by soil treatment (symbol b); settings: application herbicide amount 320 g/ha
# How it was run: (§3)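 Plants are raised in a greenhouse (25° C. to 30° C.) from spot-sown seed, which sits under about 1.5 cm of sterilized diluvial soil in a box shared with weed species.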
# wheat = assay: Test Example 4: effect on crop by soil treatment (symbol e); settings: application herbicide amount 320 g/ha
# How it was run: as §3
# Avena fatua [5] = assay: Test Example 5: herbicidal effect by foliage application, plastic box (symbol I); settings: 320 g/ha, 3 weeks after application
# How it was run: (§4)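 Greenhouse foliar test: seedlings at 14 days, grown 25° C. to 30° C. in sterilized diluvial soil; compound applied as an aqueous dilution of an emulsion; response read 3 weeks after spraying.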
# Chenopodium album [6] = assay: Test Example 5: herbicidal effect by foliage application, plastic box (symbol O); settings: 320 g/ha, 3 weeks after application
# How it was run: as §4
# Stellaria media = assay: Test Example 5: herbicidal effect by foliage application, plastic box (symbol P); settings: 320 g/ha, 3 weeks after application
# How it was run: as §4
# corn = assay: Test Example 5: effect on crop by foliage application, plastic box (symbol c); settings: 320 g/ha, 3 weeks after application
# How it was run: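 Soil: sterilized diluvial. Container: plastic box, 21 × 13 cm, 7 cm deep. Sowing: spot-like, ~1.5 cm cover. Growth: greenhouse, 25° C. to 30° C.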
Structure (SMILES),"Herbicidal effect grade, A: Echinochloa oryzacola Vasing. [1]","herbicidal effect on D (Leptochloa chinensis), grade 0-5 (Leptochloa chinensis)","herbicidal effect on E, grade 0-5 (Cyperus difformis)","effect on crop b (directly sowed rice plant), grade 0-5 [2]","G: Setaria viridis, herbicidal effect grade (Setaria viridis)","I: Avena fatua, herbicidal effect grade (Avena fatua [3])","J: Alopecurus myosuroides, herbicidal effect grade (Alopecurus myosuroides)","K: Lolium multiflorum Lam., herbicidal effect grade (Lolium multiflorum Lam.)","M: Abutilon theophrasti, herbicidal effect grade (Abutilon theophrasti)","N: Amaranthus retroflexus, herbicidal effect grade (Amaranthus retroflexus)","O: Chenopodium album, herbicidal effect grade (Chenopodium album [4])","Q: Galium spurium, herbicidal effect grade (Galium spurium)","b: directly sowed rice plant, effect on crop grade (rice)","e: wheat, effect on crop grade (wheat)","I: Avena fatua, herbicidal effect (criteria of Test Example 1) (Avena fatua [5])","O: Chenopodium album, herbicidal effect (criteria of Test Example 1) (Chenopodium album [6])","P: Stellaria media, herbicidal effect (criteria of Test Example 1) (Stellaria media)","c: corn, effect on crop (criteria of Test Example 1) (corn)",further results
CCc1cc(-c2ccc(Cl)cc2)cc(C)c1C1=C(O)CC(CC(C)=NOC)C1=O (stereo not drawn) [6-066],5 (Herbicidal ratio of 90% or more (almost completely withered)),5 (Herbicidal ratio of 90% or more (almost completely withered)),5 (Herbicidal ratio of 90% or more (almost completely withered)),5 (Herbicidal ratio of 90% or more (almost completely withered)),5 (Herbicidal ratio of 90% or more (almost completely withered)),5 (Herbicidal ratio of 90% or more (almost completely withered)),5 (Herbicidal ratio of 90% or more (almost completely withered)),5 (Herbicidal ratio of 90% or more (almost completely withered)),0 (Herbicidal ratio of 5% or lower (almost no effect)),2 (Herbicidal ratio of 20% or higher and lower than 40%),0 (Herbicidal ratio of 5% or lower (almost no effect)),0 (Herbicidal ratio of 5% or lower (almost no effect)),5 (Herbicidal ratio of 90% or more (almost completely withered)),4 (Herbicidal ratio of 70% or higher and lower than 90%),5 (Herbicidal ratio of 90% or more (almost completely withered)),1 (Herbicidal ratio of 5% or higher and lower than 20%),3 (Herbicidal ratio of 40% or higher and lower than 70%),5 (Herbicidal ratio of 90% or more (almost completely withered)),
CC(=O)CC1CC(O)=C(c2c(C)cc(Br)cc2C)C1=O (stereo not drawn) [7-002],0 (Herbicidal ratio of 5% or lower (almost no effect)),5 (Herbicidal ratio of 90% or more (almost completely withered)),3 (Herbicidal ratio of 40% or higher and lower than 70%),5 (Herbicidal ratio of 90% or more (almost completely withered)),,,,,,,,,,,4 (Herbicidal ratio of 70% or higher and lower than 90%),0 (Herbicidal ratio of 5% or lower (almost no effect)),0 (Herbicidal ratio of 5% or lower (almost no effect)),3 (Herbicidal ratio of 40% or higher and lower than 70%),"Herbicidal effect grade, G: Setaria viridis (Setaria viridis): 4 (Herbicidal ratio of 70% or higher and lower than 90%); Herbicidal effect grade, I: Avena fatua (Avena fatua [3]): 0 (Herbicidal ratio of 5% or lower (almost no effect)); Herbicidal effect grade, J: Alopecurus myosuroides (Alopecurus myosuroides): 3 (Herbicidal ratio of 40% or higher and lower than 70%); Herbicidal effect grade, K: Lolium multiflorum Lam. (Lolium multiflorum Lam.): 5 (Herbicidal ratio of 90% or more (almost completely withered)); Herbicidal effect grade, M: Abutilon theophrasti (Abutilon theophrasti): 0 (Herbicidal ratio of 5% or lower (almost no effect)); Herbicidal effect grade, N: Amaranthus retroflexus (Amaranthus retroflexus): 0 (Herbicidal ratio of 5% or lower (almost no effect)); Herbicidal effect grade, O: Chenopodium album (Chenopodium album [4]): 0 (Herbicidal ratio of 5% or lower (almost no effect)); Herbicidal effect grade, Q: Galium spurium (Galium spurium): 0 (Herbicidal ratio of 5% or lower (almost no effect)); Effect on crop grade, b: directly sowed rice plant (rice): 5 (Herbicidal ratio of 90% or more (almost completely withered)); Effect on crop grade, e: wheat (wheat): 0 (Herbicidal ratio of 5% or lower (almost no effect))"
CON=C(C)CC1CC(O)=C(c2c(C)cc(-c3ncccn3)cc2C)C1=O (mixture of isomers) [6-057],3 (Herbicidal ratio of 40% or higher and lower than 70%),5 (Herbicidal ratio of 90% or more (almost completely withered)),5 (Herbicidal ratio of 90% or more (almost completely withered)),5 (Herbicidal ratio of 90% or more (almost completely withered)),5 (Herbicidal ratio of 90% or more (almost completely withered)),0 (Herbicidal ratio of 5% or lower (almost no effect)),3 (Herbicidal ratio of 40% or higher and lower than 70%),5 (Herbicidal ratio of 90% or more (almost completely withered)),0 (Herbicidal ratio of 5% or lower (almost no effect)),0 (Herbicidal ratio of 5% or lower (almost no effect)),0 (Herbicidal ratio of 5% or lower (almost no effect)),0 (Herbicidal ratio of 5% or lower (almost no effect)),5 (Herbicidal ratio of 90% or more (almost completely withered)),1 (Herbicidal ratio of 5% or higher and lower than 20%),5 (Herbicidal ratio of 90% or more (almost completely withered)),4 (Herbicidal ratio of 70% or higher and lower than 90%),4 (Herbicidal ratio of 70% or higher and lower than 90%),5 (Herbicidal ratio of 90% or more (almost completely withered)),
CON=C(C)CC1CC(O)=C(c2c(C)cc(-c3ccc(Cl)cc3F)cc2C)C1=O (stereo not drawn) [6-084],4 (Herbicidal ratio of 70% or higher and lower than 90%),5 (Herbicidal ratio of 90% or more (almost completely withered)),5 (Herbicidal ratio of 90% or more (almost completely withered)),5 (Herbicidal ratio of 90% or more (almost completely withered)),5 (Herbicidal ratio of 90% or more (almost completely withered)),5 (Herbicidal ratio of 90% or more (almost completely withered)),5 (Herbicidal ratio of 90% or more (almost completely withered)),5 (Herbicidal ratio of 90% or more (almost completely withered)),0 (Herbicidal ratio of 5% or lower (almost no effect)),4 (Herbicidal ratio of 70% or higher and lower than 90%),3 (Herbicidal ratio of 40% or higher and lower than 70%),3 (Herbicidal ratio of 40% or higher and lower than 70%),2 (Herbicidal ratio of 20% or higher and lower than 40%),2 (Herbicidal ratio of 20% or higher and lower than 40%),5 (Herbicidal ratio of 90% or more (almost completely withered)),4 (Herbicidal ratio of 70% or higher and lower than 90%),3 (Herbicidal ratio of 40% or higher and lower than 70%),0 (Herbicidal ratio of 5% or lower (almost no effect)),

# Source: patent US11000033B2, “Ketone or oxime compound, and herbicide” (NISSAN CHEMICAL CORPORATION, priority 2014, dated 2021)
